# Laboratory results: patent publication US20020165281A1, “Treatment of anoxic encephalophathy by administration of N-acetylcystein” (priority 2001, published 2002)
# Tested on: anoxic encephalopathy and ischemic events
# Assay: Clinical case reports of patients with anoxic encephalopathy or ischemic events treated with N-acetylcystein
# Type: in vivo, human
# Source text: A person was admitted to the intensive care unit in a deep coma. Several hours prior to the admission, they suffered from a persistent ventricular arrhythmia that led to a cardiac arrest. They required nine successive electroshocks in order to reestablish their regular cardiac rhythm. The total interruption time of their blood supply to the brain was considered to be more than ten minutes. […] Their pupils were fixed and dilated, and they were placed on a mechanical ventilation. As they were unable to trigger the ventilator by themself, they were placed on an automatic mode of mechanical ventilation. There was no improvement in their condition over the next forty-eight hours. A neurologist determined their condition to be irreversible and hopeless. A second neurologist concurred. During the forty-eight hour interval, the patient was given 600 mg of N-acetylcystein in a twenty percent solution, administered via a nasal-gastric tube every twelve hours. […] They awakened and was able to communicate by head nods and facial expressions.
# A high school teacher went into a cardiac arrest while driving in their car. By the time they arrived at a hospital emergency room and was resuscitated, a period of twenty to thirty minutes of an interruption of the blood supply to the brain had elapsed. Even though the cardiac resuscitation efforts were successful, they remained in a deep coma, a vegetative state, and required a life supporting mechanical ventilation. Over the next two years, they remained on mechanical ventilation, gastrostomy tube feedings, and in a coma without any improvement in their cerebral or neurological functions. Their prognosis for recovery was considered hopeless.
# Approximately two years after the cardiac arrest, they were administered 600 mg of N-acetylcystein in a twenty percent solution twice daily. Over the next several months, they made a remarkable recovery. […] They became alert and able to respond initially to tacit and aural stimuli, and later they were able to understand simple sentences.
# A person lapsed into a coma from a cerebral hemorrhage secondary to a vascular stroke. As their condition continued to deteriorate, they required a life supporting mechanical ventilation. Several months later they developed a brain abscess that required a craniotomy. This was followed by the appearance of an intense seizure disorder.
# Following the surgery, it became possible to gradually wean […] from the respirator, but […] remained in a semi-vegetative state, unable to respond to aural stimuli and fed by a gastrostomy tube. […] remained completely bedridden.
# More than three years after the initial event, they were administered 600 mg of N-acetylcystein in a twenty percent solution twice daily via their gastrostomy tube. Over the next several months, they made a remarkable recovery. […] By the third month of treatment, they were able to sit in a wheelchair and express their wishes to be driven around the facility where they resided. By the fourth month of the treatment, they regained the capacity to express themself verbally even though it was restricted to a vocabulary of mono and disyllabic words. They also regained the ability to lift their head, which i previously lay flexed upon their chest, without the use of an assisting device. […] Their neurological and cerebral recoveries continued to progress.
# A medical technician experienced a series of multiple strokes that led to a semi-comatose state lasting more than two years. Their medical condition deteriorated over time with the development of multi-organ failures. They required a mechanical ventilation and hemo-dialysis for life support. Three years after the onset of their condition and several months after all efforts to wean them from the respirator failed, they were initially administered 600 mg of N-acetylcystein in a twenty percent solution twice daily via a gastrostomy tube.
smiles,measurement,setting,value
CC(=O)N[C@@H](CS)C(=O)O [N-acetylcystein],Overall therapeutic efficacy indicated by the four cases,acute phase and many months or years after the initial event,reversing a coma as well as other neurological deficits
same,"Breathing / respirator dependence, Case No. 1","person on mechanical ventilation, 600 mg every twelve hours via nasal-gastric tube, forty-eight hour period",able to breath partially on their own without the respirator
same,"Coma / neurological outcome, Case No. 2","person, coma for two years after cardiac arrest, 600 mg in twenty percent solution twice daily, over several months",awakened from their coma
same,"Verbal response, Case No. 2","person, coma for two years, 600 mg twice daily, by the fourth month of treatment",able to respond verbally
same,"Coma / neurological outcome, Case No. 1","person, deep coma after cardiac arrest, 600 mg in twenty percent solution via nasal-gastric tube every twelve hours, forty-eight hour period",completely revived from their coma
same,"Respirator dependence, Case No. 4","person, multiple strokes, semi-comatose, ventilated, 600 mg twice daily via gastrostomy tube increased to 2400 mg daily",improved and no longer needed the respirator
same,"Ambulation, Case No. 3","person, previously bedridden, 600 mg twice daily via gastrostomy tube, by the fifth month of treatment",able to ambulate more than one hundred steps with the aid of a walker or the wheelchair
same,"Neurological outcome, Case No. 3","person, semi-vegetative state more than three years after cerebral hemorrhage/stroke, 600 mg twice daily via gastrostomy tube, over several months",became completely alert and able to respond to simple verbal commands
same,"Respirator dependence, Case No. 2","person, two years on mechanical ventilation, 600 mg twice daily",no longer needed the respirator
